Measurements reported in US20220323455A1, “FUSED HETEROCYCLIC DERIVATIVES AS ANTIVIRAL AGENTS” (priority 2019, published 2022).

System: HBV
Test: HBV replication inhibition assay (BDNA assay) in HepG2.2.15 cells
Type: cell-based, Hepatitis B virus
Settings: 6 days, encapsidated HBV DNA in supernatant
Description: HBV replication inhibition by the disclosed compounds were determined in cells infected or transfected with HBV or cells with stably integrated HBV, such as HepG2.2.15 cells (Sells et al. 1987). In this example, HepG2.2.15 cells were maintained in cell culture medium containing 10% fetal bovine serum (FBS), Geneticin, L-glutamine, penicillin and streptomycin. HepG2.2.15 cells were seeded in 96-well plates at a density of 40,000 cells/well and were treated with serially diluted compounds at a final DMSO concentration of 0.5% either alone or in combination by adding drugs in a checker box format. Cells were incubated with compounds for three days, after which medium was removed and fresh medium containing compounds was added to cells and incubated for another three days. At day 6, supernatant was removed and treated with DNase at 37° C. for 60 minutes, followed by enzyme inactivation at 75° C. for 15 minutes. Encapsidated HBV DNA was released from the virions and covalently linked HBV polymerase by incubating in lysis buffer (Affymetrix QS0010) containing 2.5 μg proteinase K at 50° C. for 40 minutes. HBV DNA was denatured by addition of 0.2 M NaOH and detected using a branched DNA (BDNA) QuantiGene assay kit according to manufacturer recommendation (Affymetrix). HBV DNA levels were also quantified using qPCR, based on amplification of encapsidated HBV DNA extraction with QuickExtraction Solution (Epicentre Biotechnologies) and amplification of HBV DNA using HBV specific PCR probes that can hybridize to HBV DNA and a fluorescently labeled probe for quantitation. In addition, cell viability of HepG2.2.15 cells incubated with test compounds alone or in combination was determined by using CellTitre-Glo reagent according to the manufacturer protocol (Promega). The mean background signal from wells containing only culture medium was subtracted from all other samples, and percent inhibition at each compound concentration was calculated by normalizing to signals from HepG2.2.15 cells treated with 0.5% DMSO using equation E1.
% inhibition(DMSOave−Xi)DMSOave×100% E1:
where DMSOave is the mean signal calculated from the wells that were treated with DMSO control (0% inhibition control) and Xi is the signal measured from the individual wells. EC50 values, effective concentrations that achieved 50% inhibitory effect, were determined by non-linear fitting using Graphpad Prism software (San Diego, Calif.) and equation E2.
Y=Ymin+(Ymax−Ymin)/(1+10(Log EC50−X)×HillSlope) E2:
where Y represents percent inhibition values and X represents the logarithm of compound concentrations.
Selected disclosed compounds were assayed in the HBV replication assay (BDNA assay), as described above, and a representative group of these active compounds is shown in Table 5.

Row | SMILES | EC50 [nM]
1 | C[C@@H]1Cc2nn3c(c2CN1C(=O)Nc1ccnc(C(F)F)c1F)C(F)(F)CCC(O)(CF)C3 (single isomer, unassigned) [Example 85, (3R,8R*)—N-(2-(Difluoromethyl)-3-fluoropyridin-4-yl)-11,11-difluoro-8-(fluoromethyl)-8-hydroxy-3-methyl-3,4,8,9,10,11-hexahydro-1H-pyrido[4′,3′:3,4]pyrazolo[1,5-a]azepine-2(7H)-carboxamide] | 45
2 | C[C@@H]1Cc2nn3c(c2CN1C(=O)Nc1ccc(F)c(C#N)c1)C(F)(F)CCC(O)(CF)C3 (single isomer, unassigned) [Example 86, (3R,8S*)—N-(3-Cyano-4-fluorophenyl)-11,11-difluoro-8-(fluoromethyl)-8-hydroxy-3-methyl-3,4,8,9,10,11-hexahydro-1H-pyrido[4′,3′:3,4]pyrazolo[1,5-a]azepine-2(7H)-carboxamide] | 20
3 | C[C@@H]1Cc2nn3c(c2CN1C(=O)Nc1ccnc(Br)c1F)C(F)(F)CCC(O)(CF)C3 (single isomer, unassigned) [Example 87, (3R,8S*)—N-(2-Bromo-3-fluoropyridin-4-yl)-11,11-difluoro-8-(fluoromethyl)-8-hydroxy-3-methyl-3,4,8,9,10,11-hexahydro-1H-pyrido[4′,3′:3,4]pyrazolo[1,5-a]azepine-2(7H)-carboxamide] | 39
4 | C[C@@H]1Cc2nn3c(c2CN1C(=O)Nc1ccnc(C(F)F)c1F)C(F)(F)CCC(O)(CF)C3 (single isomer, unassigned) [Example 88, (3R,8S*)—N-(2-(Difluoromethyl)-3-fluoropyridin-4-yl)-11,11-difluoro-8-(fluoromethyl)-8-hydroxy-3-methyl-3,4,8,9,10,11-hexahydro-1H-pyrido[4′,3′:3,4]pyrazolo[1,5-a]azepine-2(7H)-carboxamide] | 118
5 | C[C@@H]1Cc2nn3c(c2CN1C(=O)Nc1ccnc(C(F)F)c1F)C(F)(F)CCC(O)(CC#N)C3 (single isomer, unassigned) [Example 90, (3R,8S*)-8-(Cyanomethyl)-N-(2-(difluoromethyl)-3-fluoropyridin-4-yl)-11,11-difluoro-8-hydroxy-3-methyl-3,4,8,9,10,11-hexahydro-1H-pyrido[4′,3′:3,4]pyrazolo[1,5-a]azepine-2(7H)-carboxamide] | 54
6 | C[C@@H]1Cc2nn3c(c2CN1C(=O)Nc1ccnc(Br)c1F)C(F)(F)CCC(O)(CC#N)C3 (single isomer, unassigned) [Example 91, (3R,8R*)—N-(2-Bromo-3-fluoropyridin-4-yl)-8-(cyanomethyl)-11,11-difluoro-8-hydroxy-3-methyl-3,4,8,9,10,11-hexahydro-1H-pyrido[4′,3′:3,4]pyrazolo[1,5-a]azepine-2(7H)-carboxamide] | 30
7 | C[C@@H]1Cc2nn3c(c2CN1C(=O)Nc1ccnc(C(F)F)c1F)C(F)(F)CCC(O)(CC#N)C3 (single isomer, unassigned) [Example 92, (3R,8R*)-8-(Cyanomethyl)-N-(2-(difluoromethyl)-3-fluoropyridin-4-yl)-11,11-difluoro-8-hydroxy-3-methyl-3,4,8,9,10,11-hexahydro-1H-pyrido[4′,3′:3,4]pyrazolo[1,5-a]azepine-2(7H)-carboxamide] | 191
8 | C[C@@H]1Cc2nn3c(c2CN1C(=O)Nc1ccc(F)c(C#N)c1)C(F)(F)CCC(O)(COCC(F)F)C3 (single isomer, unassigned) [Example 93, (3R,8R*)—N-(3-Cyano-4-fluorophenyl)-8-((2,2-difluoroethoxy)methyl)-11,11-difluoro-8-hydroxy-3-methyl-3,4,89,10,11-hexahydro-1H-pyrido[4′,3′:3,4]pyrazolo[1,5-a]azepine-2(7H)-carboxamide] | 45
9 | C[C@@H]1Cc2nn3c(c2CN1C(=O)Nc1ccc(F)c(C#N)c1)C(F)(F)CCC(O)(COCC(F)F)C3 (single isomer, unassigned) [Example 94, (3R,8S*)—N-(3-Cyano-4-fluorophenyl)-8-((2,2-difluoroethoxy)methyl)-11,11-difluoro-8-hydroxy-3-methyl-3,4,8,9,10,11-hexahydro-1H-pyrido[4′,3′:3,4]pyrazolo[1,5-a]azepine-2(7H)-carboxamide] | 15
10 | C#CC1(O)CCC(F)(F)c2c3c(nn2C1)C[C@@H](C)N(C(=O)Nc1ccc(F)c(C#N)c1)C3 (single isomer, unassigned) [Example 95, (3R,8R*)—N-(3-Cyano-4-fluorophenyl)-8-ethynyl-11,11-difluoro-8-hydroxy-3-methyl-3,4,8,9,10,11-hexahydro-1H-pyrido[4′,3′:3,4]pyrazolo[1,5-a]azepine-2(7H)-carboxamide] | 13
11 | C#CC1(O)CCC(F)(F)c2c3c(nn2C1)C[C@@H](C)N(C(=O)Nc1ccnc(Br)c1F)C3 (single isomer, unassigned) [Example 96, (3R,8R*)—N-(2-Bromo-3-fluoropyridin-4-yl)-8-ethynyl-11,11-difluoro-8-hydroxy-3-methyl-3,4,8,9,10,11-hexahydro-1H-pyrido[4′,3′:3,4]pyrazolo[1,5-a]azepine-2(7H)-carboxamide] | 35
12 | C#CC1(O)CCC(F)(F)c2c3c(nn2C1)C[C@@H](C)N(C(=O)Nc1ccc(F)c(C#N)c1)C3 (single isomer, unassigned) [Example 98, (3R,8S*)—N-(3-Cyano-4-fluorophenyl)-8-ethynyl-11,11-difluoro-8-hydroxy-3-methyl-3,4,8,9,10,11-hexahydro-1H-pyrido[4′,3′:3,4]pyrazolo[1,5-a]azepine-2(7H)-carboxamide] | 51
13 | C#CC1(O)CCC(F)(F)c2c3c(nn2C1)C[C@@H](C)N(C(=O)Nc1ccnc(Br)c1F)C3 (single isomer, unassigned) [Example 99, (3R,8S*)—N-(2-Bromo-3-fluoropyridin-4-yl)-8-ethynyl-11,11-difluoro-8-hydroxy-3-methyl-3,4,8,9,10,11-hexahydro-1H-pyrido[4′,3′:3,4]pyrazolo[1,5-a]azepine-2(7H)-carboxamide] | 275
14 | C[C@@H]1Cc2nn3c(c2CN1C(=O)Nc1ccc(F)c(C#N)c1)C(F)(F)CCC(C(C)(C)O)C3 (single isomer, unassigned) [Example 101, (3R,8S*)—N-(3-Cyano-4-fluorophenyl)-11,11-difluoro-8-(2-hydroxypropan-2-yl)-3-methyl-3,4,8,9,10,11-hexahydro-1H-pyrido[4′,3′:3,4]pyrazolo[1,5-a]azepine-2(7H)-carboxamide] | 44
15 | C[C@@H]1Cc2nn3c(c2CN1C(=O)Nc1ccnc(Br)c1F)C(F)(F)CCC(C(C)(C)O)C3 (single isomer, unassigned) [Example 102, (3R,8S*)—N-(2-Bromo-3-fluoropyridin-4-yl)-1111-difluoro-8-(2-hydroxypropan-2-yl)-3-methyl-3,4,8,9,10,11-hexahydro-1H-pyrido[4′,3′:3,4]pyrazolo[1,5-a]azepine-2(7H)-carboxamide] | 88
16 | C[C@@H]1Cc2nn3c(c2CN1C(=O)Nc1ccc(F)c(C#N)c1)C(F)(F)CCC(C(C)(C)O)C3 (single isomer, unassigned) [Example 103, (3R,8R*)—N-(3-Cyano-4-fluorophenyl)-11,11-difluoro-8-(2-hydroxypropan-2-yl)-3-methyl-3,4,8,9,10,11-hexahydro-1H-pyrido[4′,3′:3,4]pyrazolo[1,5-a]azepine-2(7H)-carboxamide] | 18
17 | C[C@@H]1Cc2nn3c(c2CN1C(=O)Nc1ccnc(Br)c1F)C(F)(F)CCC(C(C)(C)O)C3 (single isomer, unassigned) [Example 104, (3R,8R*)—N-(2-Bromo-3-fluoropyridin-4-yl)-11,11-difluoro-8-(2-hydroxypropan-2-yl)-3-methyl-3,4,8,9,10,11-hexahydro-1H-pyrido[4′,3′:3,4]pyrazolo[1,5-a]azepine-2(7H)-carboxamide] | 36
18 | COC(=O)NCC1CCC(F)(F)c2c3c(nn2C1)C[C@@H](C)N(C(=O)Nc1ccc(F)c(C#N)c1)C3 (single isomer, unassigned) [Example 105, methyl (((3R,8R*)-2-((3-cyano-4-fluorophenyl)carbamoyl)-11,11-difluoro-3-methyl-2,3,4,7,8,9,10,11-octahydro-1H-pyrido[4′,3′:3,4]pyrazolo[1,5-a]azepin-8-yl)methyl)carbamate] | 3
19 | COC(=O)NCC1CCC(F)(F)c2c3c(nn2C1)C[C@@H](C)N(C(=O)Nc1ccnc(Br)c1F)C3 (single isomer, unassigned) [Example 106, Methyl (((3R,8R*)-2-((2-bromo-3-fluoropyridin-4-yl)carbamoyl)-11,11-difluoro-3-methyl-2,3,4,7,8,9,10,11-octahydro-1H-pyrido[4′,3′:3,4]pyrazolo[1,5-a]azepin-8-yl)methyl)carbamate] | 10
